From the NIST ThermoML archive (doi:10.1021/je300775u)

Assay: xn = mol fraction of the nth substance listed
Conditions: 101 kPa, Liquid; for speed of sound: Pulse-echo method; for mass density: Vibrating tube method

ClCBr [bromochloromethane] + ClC(Cl)(Cl)Br
Conditions | mass density, 293.15 K [kg/m3] | mass density, 298.15 K [kg/m3] | mass density, 303.15 K [kg/m3] | mass density, 308.15 K [kg/m3] | mass density, 313.15 K [kg/m3] | speed of sound, 293.15 K [m/s] | speed of sound, 298.15 K [m/s] | speed of sound, 303.15 K [m/s] | speed of sound, 308.15 K [m/s] | speed of sound, 313.15 K [m/s]
x2 = 0 | 1933.23 | 1921.71 | 1910.15 | 1898.51 | 1886.82 | 1001.2 | 986.1 | 971 | 955.9 | 940.8
x2 = 0.052 | 1938.2 | 1926.72 | 1915.19 | 1903.6 | 1891.94 | 992.8 | 977.9 | 962.9 | 947.9 | 933
x2 = 0.103 | 1942.79 | 1931.34 | 1919.85 | 1908.3 | 1896.67 | 985.2 | 970.4 | 955.5 | 940.7 | 925.9
x2 = 0.1538 | 1947.34 | 1935.88 | 1924.46 | 1912.93 | 1901.44 | 978.4 | 963.6 | 948.9 | 934.2 | 919.1
x2 = 0.2031 | 1951.55 | 1940.16 | 1928.76 | 1917.27 | 1905.74 | 972.2 | 957.5 | 942.8 | 928.1 | 913.6
x2 = 0.2551 | 1956.05 | 1944.71 | 1933.31 | 1921.86 | 1910.36 | 966.1 | 951.6 | 937 | 922.6 | 908.1
x2 = 0.305 | 1960.19 | 1948.82 | 1937.49 | 1926.18 | 1914.72 | 960.7 | 946.3 | 931.8 | 917.3 | 903
x2 = 0.3522 | 1963.98 | 1952.66 | 1941.28 | 1929.99 | 1918.58 | 956.4 | 942.1 | 927.8 | 913.5 | 898.9
x2 = 0.4063 | 1968.54 | 1957.3 | 1946.02 | 1934.68 | 1923.3 | 950.8 | 936.7 | 922.4 | 908.2 | 894
x2 = 0.4553 | 1972.41 | 1961.2 | 1949.96 | 1938.65 | 1927.29 | 946.7 | 932.6 | 918.4 | 904.2 | 890.3
x2 = 0.5058 | 1976.4 | 1965.21 | 1954 | 1942.75 | 1931.42 | 942.7 | 928.6 | 914.5 | 900.5 | 886.5
x2 = 0.5665 | 1981.04 | 1969.89 | 1958.74 | 1947.52 | 1936.26 | 938.2 | 924.2 | 910.3 | 896.4 | 882.6
x2 = 0.6027 | 1983.79 | 1972.67 | 1961.52 | 1950.31 | 1939.1 | 935.8 | 921.9 | 908 | 894.1 | 880.3
x2 = 0.6567 | 1987.81 | 1976.74 | 1965.63 | 1954.45 | 1943.26 | 932.3 | 918.5 | 904.7 | 891 | 877.2
x2 = 0.7046 | 1991.31 | 1980.21 | 1969.15 | 1958.12 | 1946.95 | 929.6 | 915.8 | 902 | 888.3 | 874.7
x2 = 0.7543 | 1994.91 | 1983.88 | 1972.83 | 1961.75 | 1950.61 | 926.9 | 913.2 | 899.5 | 885.9 | 872.3
x2 = 0.8025 | 1998.2 | 1987.2 | 1976.2 | 1965.14 | 1954.05 | 924.5 | 910.8 | 897.2 | 883.7 | 870.2
x2 = 0.8516 | 2001.94 | 1990.96 | 1979.93 | 1968.92 | 1957.85 | 922.3 | 908.7 | 895.1 | 881.6 | 868.3
x2 = 0.8996 | 2005.35 | 1994.38 | 1983.39 | 1972.42 | 1961.38 | 920.3 | 906.8 | 893.3 | 879.9 | 866.5
x2 = 0.9228 | 2007.14 | 1996.17 | 1985.15 | 1974.22 | 1963.19 | 919.8 | 906.3 | 892.9 | 879.4 | 865.9
